According to patent publication US7538221B2, “Polymorphs of racemic, dextrorotatory, and levorotatory enantioners of 1-cyclopropyl-6-fluoro-8-methoxy-7-(4-amino-3,3-dimethylpiperidin-1-yl)-1,4-dihydro-4-oxo-quinoline-3-carboxylic acid hydrochloride and mesylate salts” (The Company of Wockhardt Limited, priority 2003, dated 2009):
Like-named read-outs stand apart in the source and are kept apart here. Values belong to the compound of their own block, whether it stands above or below them.

Assays:
[1] = Percent relative humidity stability study; type: physicochemical
[2] = Aqueous solubility of salt polymorphs; conditions: water, 25 °C, Aqueous Solubility at 25-30° C. (mg/ml)
[3] = solid kept for 20 days in 78% relative humidity

polymorph change on storage (Powder X-ray Diffraction spectrum and aqueous solubility change) [1, 3]: changed to polymorph A-2
Structure (SMILES): COc1c(N2CCC(N)C(C)(C)C2)c(F)cc2c(=O)c(C(=O)O)cn(C3CC3)c12.Cl (racemic) [(±) A-1, (±)-1-cyclopropyl-6-fluoro-8-methoxy-7-(4-amino-3,3-dimethylpiperidin-1-yl)-1,4-dihydro-4-oxo-quinoline-3-carboxylic acid hydrochloride]

polymorph change on storage (Powder X-ray Diffraction spectrum and aqueous solubility change) [1, 3]: changed to polymorph A-2
Structure (SMILES): COc1c(N2CCC(N)C(C)(C)C2)c(F)cc2c(=O)c(C(=O)O)cn(C3CC3)c12.Cl (racemic) [(±) A-3, (±)-1-cyclopropyl-6-fluoro-8-methoxy-7-(4-amino-3,3-dimethylpiperidin-1-yl)-1,4-dihydro-4-oxo-quinoline-3-carboxylic acid hydrochloride]

solubility [2]: 80 to 200 mg/mL
Structure (SMILES): COc1c(N2CCC(N)C(C)(C)C2)c(F)cc2c(=O)c(C(=O)O)cn(C3CC3)c12.CS(=O)(=O)O (racemic) [(±) B-1, (±)-1-cyclopropyl-6-fluoro-8-methoxy-7-(4-amino-3,3-dimethylpiperidin-1-yl)-1,4-dihydro-4-oxo-quinoline-3-carboxylic acid mesylate]

polymorph change on storage (Powder X-ray Diffraction spectrum and aqueous solubility change) [1, 3]: changed to polymorph A-2
Structure (SMILES): COc1c(N2CC[C@@H](N)C(C)(C)C2)c(F)cc2c(=O)c(C(=O)O)cn(C3CC3)c12.Cl [(+) A-1, R-(+)-1-cyclopropyl-6-fluoro-8-methoxy-7-(4-amino-3,3-dimethylpiperidin-1-yl)-1,4-dihydro-4-oxo-quinoline-3-carboxylic acid hydrochloride]

thermodynamic stability of polymorph ([1]; from percent relative humidity stability study and aqueous solubility data): thermodynamically stable
Structure (SMILES): COc1c(N2CC[C@@H](N)C(C)(C)C2)c(F)cc2c(=O)c(C(=O)O)cn(C3CC3)c12.Cl [(+) A-2, R-(+)-1-cyclopropyl-6-fluoro-8-methoxy-7-(4-amino-3,3-dimethylpiperidin-1-yl)-1,4-dihydro-4-oxo-quinoline-3-carboxylic acid hydrochloride]

polymorph change on storage (Powder X-ray Diffraction spectrum and aqueous solubility change) [1, 3]: changed to polymorph A-2
Structure (SMILES): COc1c(N2CC[C@@H](N)C(C)(C)C2)c(F)cc2c(=O)c(C(=O)O)cn(C3CC3)c12.Cl [(+) A-3, R-(+)-1-cyclopropyl-6-fluoro-8-methoxy-7-(4-amino-3,3-dimethylpiperidin-1-yl)-1,4-dihydro-4-oxo-quinoline-3-carboxylic acid hydrochloride]

solubility [2]: 80 to 200 mg/mL
Structure (SMILES): COc1c(N2CC[C@@H](N)C(C)(C)C2)c(F)cc2c(=O)c(C(=O)O)cn(C3CC3)c12.CS(=O)(=O)O [(+) B-1, R-(+)-1-cyclopropyl-6-fluoro-8-methoxy-7-(4-amino-3,3-dimethylpiperidin-1-yl)-1,4-dihydro-4-oxo-quinoline-3-carboxylic acid mesylate]

polymorph change on storage (Powder X-ray Diffraction spectrum and aqueous solubility change) [1]: changed to polymorph A-3
Structure (SMILES): COc1c(N2CC[C@H](N)C(C)(C)C2)c(F)cc2c(=O)c(C(=O)O)cn(C3CC3)c12.Cl [(−) A-1, S-(−)-1-cyclopropyl-6-fluoro-8-methoxy-7-(4-amino-3,3-dimethylpiperidin-1-yl)-1,4-dihydro-4-oxo-quinoline-3-carboxylic acid hydrochloride]

polymorph change on storage (Powder X-ray Diffraction spectrum and aqueous solubility change) [1]: changed to polymorph A-3 | thermodynamic stability of polymorph [1]: thermodynamically stable
Structure (SMILES): COc1c(N2CC[C@H](N)C(C)(C)C2)c(F)cc2c(=O)c(C(=O)O)cn(C3CC3)c12.Cl [(−) A-2, S-(−)-1-cyclopropyl-6-fluoro-8-methoxy-7-(4-amino-3,3-dimethylpiperidin-1-yl)-1,4-dihydro-4-oxo-quinoline-3-carboxylic acid hydrochloride]

thermodynamic stability of polymorph [1]: thermodynamically stable
Structure (SMILES): COc1c(N2CC[C@H](N)C(C)(C)C2)c(F)cc2c(=O)c(C(=O)O)cn(C3CC3)c12.Cl [(−) A-3, S-(−)-1-cyclopropyl-6-fluoro-8-methoxy-7-(4-amino-3,3-dimethylpiperidin-1-yl)-1,4-dihydro-4-oxo-quinoline-3-carboxylic acid hydrochloride]

polymorph change on storage (Powder X-ray Diffraction spectrum and aqueous solubility change) [1]: changed to polymorph A-3
Structure (SMILES): COc1c(N2CC[C@H](N)C(C)(C)C2)c(F)cc2c(=O)c(C(=O)O)cn(C3CC3)c12.Cl [(−) A-4, S-(−)-1-cyclopropyl-6-fluoro-8-methoxy-7-(4-amino-3,3-dimethylpiperidin-1-yl)-1,4-dihydro-4-oxo-quinoline-3-carboxylic acid hydrochloride]
